Key:
Format in all cases: in vivo
[1] = system: Matricaria chamomilla (MATCH); assay: pre-emergence control of MATCH in corn (efficacy, Colby synergy)
Text: (§1) [formula] • where ppm=milligrams of active ingredient (=a.i.) per liter of spray mixture X=% action by component A using p ppm of active ingredient Y=% action by component B using q ppm of active ingredient. If the ratio R defined as the action actually observed (O) divided by the expected action (E) is >1 then the action of the combination is superadditive, i.e. there is a synergistic effect. For a more detailed description of the Colby formula, see Colby, S. R. “Calculating Synergistic and Antagonistic Responses of Herbicide Combination”, Weeds, Vol. 15, pages 20-22; 1967; see also Limpel et al., Proc. NEWCC 16:48-53 (1962).
(§2) As used herein, rating timings correspond to the following: A1=weed assessment at BBCH 11-12; A2=4 weeks after the application; A3=when ZEAMX crop reaches BBCH 18 (row closure); and A4=BBCH 51-59 of the ZEAMX crop.
(§3) The herbicidal compounds bixlozone and pethoxamid were applied in a variety of forms and at a variety of amounts, application rates, and normalities. Efficacy of the herbicidal compositions was evaluated with reference to a scale of 0% to 100% in comparison with untreated control plots. 0 means no damage to the harmful plants and 100 means complete destruction of the harmful plants. Plants per square meter is indicated by “pl/m^2”, and grams per hectare is indicated by “g/ha”. The acronym “EC” means emulsifiable concentrate (a liquid, homogenous formulation to be applied as an emulsion after dilution with water); “SC” means suspension concentrate (a stable suspension of active ingredient(s) with water as the fluid); “ZC” refers to a mixed formulation of CS and SC (a stable suspension of capsules and active ingredient(s) in a fluid, normally intended for dilution with water before use).
(§4) Various forms, compositions, and mixtures of bixlozone and pethoxamid were applied to corn before emergence. […] There was equivalent efficacy for fixed rate of bixlozone combined with pethoxamid: 1200 or 900 g/ha. Efficacy was reduced when bixlozone rate decreased from 250 to 150 g/ha. […]

[2] = system: DAUCA; assay: pre-emergence control of DAUCA in corn (efficacy, Colby synergy); details: bixlozone 375, pethoxamid 300, mixtures 375 + 300 g/ha
Text: Table 11. Synergy data of various forms and mixtures of bixlozone and pethoxamid after pre-emergence application on corn at the crop row closure stage (BBCH 18). The notations in parentheses show the forms and amounts (in g/ha) of applied bixlozone and pethoxamid, respectively. Where “tank” is noted, the mix is a tank mix. Where “premix” is noted, the mix is a premix. Where there is no notation, the value shown is the Colby calculation for the expected value from separate mixtures.
(§5) Various forms, compositions, and mixtures of bixlozone and pethoxamid were applied to corn before emergence. […] Mixtures of bixlozone with 300 g/ha pethoxamid improved weed spectrum on a range of broad leaf weeds (e.g., SOLNI and ABUTH). Combinations of bixlozone and pethoxamid in pre-emergence applications were very safe with no clear pethoxamid rate effect.
Table 13. Efficacies of various forms and mixtures of bixlozone and pethoxamid after pre-emergence application on corn. Weeds were present at ≥5 pl/m^2. Concentrations are shown in parentheses in g/ha.

[3] = system: Convolvulus arvensis (CONAR); assay: pre-emergence control of CONAR in corn (efficacy, Colby synergy); details: bixlozone 375, pethoxamid 300, mixtures 375 + 300 g/ha
Text: as §1, §2
(§6) The herbicidal compounds bixlozone and pethoxamid were applied in a variety of forms and at a variety of amounts, application rates, and normalities. Efficacy of the herbicidal compositions was evaluated with reference to a scale of 0% to 100% in comparison with untreated control plots. 0 means no damage to the harmful plants and 100 means complete destruction of the harmful plants. Plants per square meter is indicated by “pl/m^2”, and grams per hectare is indicated by “g/ha”. […]

[4] = system: FUMOF; assay: pre-emergence control of FUMOF in corn (efficacy, Colby synergy); details: bixlozone 375, pethoxamid 800, tank mix 375 + 800, premix 375 + 775 g/ha
Text: (§7) Table 10. Synergy data of various forms and mixtures of bixlozone and pethoxamid after pre-emergence application on corn at the crop row closure stage (BBCH 18). […] The notations in parentheses show the forms and amounts (in g/ha) of applied bixlozone and pethoxamid, respectively. Where “tank” is noted, the mix is a tank mix. Where “premix” is noted, the mix is a premix. Where there is no notation, the value shown is the Colby calculation for the expected value from separate mixtures.
as §5, with “800” for “300”, “CHEAL” for “SOLNI”, “ABUTH) and grasses (e.g., ECHCG, DIGSA, and SETVI).” for “ABUTH).”
(§8) Table 12. Efficacies of various forms and mixtures of bixlozone and pethoxamid after pre-emergence application on corn. Weeds were present at ≥5 pl/m^2. Concentrations are shown in parentheses in g/ha.

[5] = system: Chenopodium hybridum (CHEHY); assay: pre-emergence control of CHEHY in corn (efficacy, Colby synergy); details: bixlozone 375, pethoxamid 300, mixtures 375 + 300 g/ha
Text: as §1, §2, §6

[6] = system: AMBEL; assay: pre-emergence control of AMBEL in corn (efficacy); details: bixlozone 375, pethoxamid 1200, mixtures 375 + 1200 g/ha
Text: as §5, with “1200” for “300”, “CHEAL, MATSS,” for “SOLNI”, “POLSS) and grasses (e.g., ECHCG, DIGSA, and SETVI).” for “ABUTH).”
Table 8. Efficacies of various forms and mixtures of bixlozone and pethoxamid after pre-emergence application on corn. Weeds were present at ≥5 pl/m^2. Concentrations are shown in parentheses in g/ha.

[7] = system: Acalypha virginica (ACCVI); assay: pre-emergence control of ACCVI in corn (Colby synergy)
Text: as §1, §6

[8] = system: GALAP; assay: pre-emergence control of GALAP in corn (efficacy, Colby synergy)
Text: as §7
as §5, with “800” for “300”, “CHEAL” for “SOLNI”, “ABUTH) and grasses (e.g., ECHCG, DIGSA, and SETVI).” for “ABUTH).”
as §8
Various forms, compositions, and mixtures of bixlozone and pethoxamid were applied to corn before emergence. […]

[9] = system: Lamium purpureum (LAMPU); assay: pre-emergence control of LAMPU in corn (efficacy, Colby synergy); details: bixlozone 375, pethoxamid 300, mixtures 375 + 300 g/ha
Text: as §1, §2, §6

[10] = system: Solanum nigrum (SOLNI); assay: pre-emergence control of SOLNI in corn (efficacy, Colby synergy)
Text: as §1, §2, §3, §4

[11] = system: Capsella bursa-pastoris (CAPBP); assay: pre-emergence control of CAPBP in corn (efficacy, Colby synergy); details: bixlozone 375, pethoxamid 800, tank mix 375 + 800, premix 375 + 775 g/ha
Text: as §1, §2, §6

[12] = system: Portulaca oleracea (POROL); assay: pre-emergence control of POROL in corn (Colby synergy)
Text: as §1, §3
as §5, with “1200” for “300”, “CHEAL, MATSS,” for “SOLNI”, “POLSS) and grasses (e.g., ECHCG, DIGSA, and SETVI).” for “ABUTH).”

[13] = system: Echinochloa crus-galli (ECHCG); assay: pre-emergence control of ECHCG in corn (efficacy, Colby synergy)
Text: as §1, §2, §6

[14] = system: Digitaria sanguinalis (DIGSA); assay: pre-emergence control of DIGSA in corn (efficacy, Colby synergy); details: bixlozone 375, pethoxamid 1200, mixtures 375 + 1200 g/ha
Text: as §1, §2, §6

[15] = system: Polygonum aviculare (POLAV); assay: pre-emergence control of POLAV in corn (Colby synergy); details: bixlozone 375, pethoxamid 1200, mixtures 375 + 1200 g/ha
Text: as §1, §6

[16] = system: Stellaria media (STEME); assay: pre-emergence control of STEME in corn (efficacy, Colby synergy); details: bixlozone 375, pethoxamid 800, tank mix 375 + 800, premix 375 + 775 g/ha
Text: as §1, §2, §6

[17] = system: Lolium multiflorum (LOLMU); assay: pre-emergence control of LOLMU in corn (Colby synergy); details: bixlozone 375, pethoxamid 1200, mixtures 375 + 1200 g/ha
Text: as §1, §6

[18] = system: Panicum dichotomiflorum (PANDI); assay: pre-emergence control of PANDI in corn (Colby synergy)
Text: as §1, §3
as §5, with “1200” for “300”, “CHEAL, MATSS,” for “SOLNI”, “POLSS) and grasses (e.g., ECHCG, DIGSA, and SETVI).” for “ABUTH).”

[19] = system: Persicaria maculosa (POLPE); assay: pre-emergence control of POLPE in corn (efficacy, Colby synergy)
Text: as §1, §2, §3, §4

[20] = system: Mercurialis annua (MERAN); assay: pre-emergence control of MERAN in corn (efficacy, Colby synergy); details: bixlozone 375, pethoxamid 300, mixtures 375 + 300 g/ha
Text: as §1, §2, §3, §4

[21] = bixlozone 375, pethoxamid 300, mixtures 375 + 300 g/ha
[22] = bixlozone 375, pethoxamid 800, tank mix 375 + 800, premix 375 + 775 g/ha
[23] = bixlozone 375, pethoxamid 1200, mixtures 375 + 1200 g/ha

`CCOCCN(C(=O)CCl)C(=C(C)C)c1ccccc1` [pethoxamid] gave an Efficacy [1, 21] of 90, an Efficacy [1, 22] of 100 and an Efficacy [1, 23] of 77.5. For the same compound, the Efficacy [2] was 83, the Efficacy [3] was 39.6 and the Efficacy [4] was 12.5. For the same compound, the Efficacy [5] was 0, the Efficacy [6] was 7.5 and the Efficacy [7, 21] was 65. For the same compound, the Efficacy [7, 23] was 46.3, the Efficacy [8, 21] was 7.5 and the Efficacy [8, 22] was 7.5. For the same compound, the Efficacy [9] was 62.5, the Efficacy [10, 21] was 28.8 and the Efficacy [10, 22] was 52.5. It also gave an Efficacy [10, 23] of 76.5, an Efficacy [11] of 99.3 and an Efficacy [12, 21] of 48.8. For the same compound, the Efficacy [12, 22] was 98.8, the Efficacy [12, 23] was 94.6 and the Efficacy [13, 21] was 48.4. The Efficacy [13, 23] was 85.5, the Efficacy [14] was 82 and the Efficacy [15] was 77.5. For the same compound, the Efficacy [16] was 91, the Efficacy [17] was 78.8 and the Efficacy [18, 21] was 68.8. It also gave an Efficacy [18, 22] of 71.3, an Efficacy [18, 23] of 84.8 and an Efficacy [19, 21] of 45.5. It also gave an Efficacy [19, 22] of 61.8, an Efficacy [19, 23] of 62.5 and an Efficacy [20] of 36.3.
